# Test results: patent publication US20250314644A1, “METHODS COMPRISING DETECTION OF ADP-HEPTOSE” (CHILDREN'S HOSPITAL MEDICAL CENTER, priority 2023, published 2025)
# Key:
# MDS BM cells = assay: Patient derived xenograft in NSG mice treated with ADP-heptose; assay type: in vivo, human; conditions: immunocompromised mice, after 28 days
# Procedure: (§1) NOD.Cg-Prkdc^scidIl2rg^tm1Wj1/SzJ (NSG)^75 were bred and maintained by the CCHMC Comprehensive Mouse Core. For patient derived xenografts, NSG mice (sub-lethally conditioned with 2 Gy of whole-body irradiation) were injected tail vein with healthy CD34+ cells (1×10^6 cells per mouse) and MDS patient cells (5×10^6 cells per mouse) in 200 μl of sterile PBS. Mice were then given sterile water or ADP-heptose (0.5 mg/kg) dissolved in sterile water at the indicated times. Mice were monitored for human engraftment in BM aspirates Briefly, 1×10^6 BM cells from each sample were incubated with huCD45 (Cat no. 555485, BDPharmingen) and huCD33 (Cat no. 555450, BDPharmingen) antibodies diluted 1:100 in a solution of PBS, 0.2% FBS for 30 minutes on ice. Cells were washed once with PBS, resuspended in PBS with 0.2% FBS, and immediately analyzed by flow cytometry.
# [1] = system: Dnmt3a^KO; Alpk1^KO cells; assay: RNA-sequencing of HSPCs treated in vitro with ADP-heptose or H2O for 90 minutes; assay type: cell-based, mouse; conditions: vs H2O
# healthy BM cells = assay: Xenograft of healthy cells in NSG mice treated with ADP-heptose; assay type: in vivo, human; conditions: immunocompromised mice
# Procedure: as §1
compound,measurement,setting,value
"Nc1ncnc2c1ncn2[C@@H]1O[C@H](COP(=O)(O)OP(=O)(O)O[C@@H]2O[C@H]([C@H](O)CO)[C@@H](O)[C@H](O)[C@@H]2O)[C@@H](O)[C@H]1O [ADP-heptose, ADP-D-glycero-β-D-manno-heptose]",expansion of xenografted MDS BM cells,MDS BM cells,expanded
same,logFC 7fp418,[1],−0.871
same,logFC 1110019D14Rik,[1],−0.854
same,logFC 1700037C18Rik,[1],0.829
same,logFC 2810408A11Rik,[1],−0.812
same,logFC 4930451G09Rik,[1],0.8284
same,logFC 4933407K13Rik,[1],−0.692
same,logFC 5031425F14Rik,[1],0.715
same,logFC 9330182L06Rik,[1],−1.241
same,logFC A430105I19Rik,[1],1.602
same,logFC A930013F10Rik,[1],0.5873
same,logFC AI607873,[1],0.7333
same,logFC Abcb4,[1],0.7782
same,logFC Ambp,[1],0.8742
same,logFC Aqp1,[1],0.6005
same,logFC Arg1,[1],1.214
same,logFC Azin2,[1],0.7217
same,logFC BC100530,[1],−0.982
same,logFC Bambi-ps1,[1],−0.651
same,logFC Caprin2,[1],−0.787
same,logFC Ces1d,[1],−0.735
same,logFC Cgref1,[1],1.029
same,logFC Ctsf,[1],−0.836
same,logFC Ctsk,[1],−0.954
same,logFC D630023F18Rik,[1],−0.819
same,logFC Epha7,[1],−0.73
same,logFC Erdr1,[1],−1.542
same,logFC Foxd4,[1],−0.677
same,logFC Gas6,[1],−0.682
same,logFC Gbp9,[1],1.092
same,logFC Gm4285,[1],−1.087
same,logFC Gm5069,[1],−0.82
same,logFC Gm15694,[1],0.9249
same,logFC Gm16023,[1],0.8494
same,logFC Gm21057,[1],−1.133
same,logFC Hist1h1e,[1],−0.799
same,logFC Hist1h2be,[1],−1.019
same,logFC Hist1h4h,[1],−1.162
same,logFC Hmga1,[1],−0.621
same,logFC Irf7,[1],0.6473
same,logFC Isg15,[1],0.6427
same,logFC Kif1a,[1],−0.954
same,logFC Kif9,[1],1.387
same,logFC Lars2,[1],−1.194
same,logFC Lrrc51,[1],1.737
same,logFC Ltc4s,[1],0.978
same,logFC Ly6i,[1],0.764
same,logFC Nefh,[1],0.6222
same,logFC Nr1h3,[1],−0.655
same,logFC Oas1g,[1],0.6168
same,logFC Oas2,[1],0.8787
same,logFC Oas3,[1],0.6718
same,logFC Oasl1,[1],0.7357
same,logFC Oasl2,[1],0.9665
same,logFC Paqr3,[1],−0.758
same,logFC Pcsk9,[1],−1.15
same,logFC Rhcg,[1],1.146
same,logFC Rn45s,[1],−1.533
same,logFC Rsad2,[1],0.9464
same,logFC Rtp4,[1],1.172
same,logFC Sdhaf3,[1],−0.856
same,logFC Sfxn4,[1],−1.009
same,logFC Slfn5,[1],1.078
same,logFC Stac3,[1],0.7901
same,logFC Stbd1,[1],0.9881
same,logFC Stxbp3-ps,[1],−0.814
same,logFC Syp,[1],0.7928
same,logFC Tagln,[1],1.205
same,logFC Tchh,[1],1.26
same,logFC Tle6,[1],−0.734
same,logFC Usp18,[1],0.7247
same,logFC Xaf1,[1],0.6469
same,logFC Zbp1,[1],0.6712
same,logFC Zdhhc2,[1],0.7176
same,logFC Zdhhc15,[1],0.9343
same,logFC Zfp54,[1],−0.829
same,engraftment of healthy BM cells,healthy BM cells,no effect
